Test results from BindingDB's records for doi:10.1021/cc1000488 (German University In Cairo, 2010).

biological target: Mitogen-activated protein kinase 14 (Homo sapiens, UniProt Q16539); assay: P38 MAP Kinase Assay; conditions: pH 7.5; 37 °C
Source text: Kinase assay using p38alpha MAP.

Chain of Mitogen-activated protein kinase 14 (Q16539 whole entry): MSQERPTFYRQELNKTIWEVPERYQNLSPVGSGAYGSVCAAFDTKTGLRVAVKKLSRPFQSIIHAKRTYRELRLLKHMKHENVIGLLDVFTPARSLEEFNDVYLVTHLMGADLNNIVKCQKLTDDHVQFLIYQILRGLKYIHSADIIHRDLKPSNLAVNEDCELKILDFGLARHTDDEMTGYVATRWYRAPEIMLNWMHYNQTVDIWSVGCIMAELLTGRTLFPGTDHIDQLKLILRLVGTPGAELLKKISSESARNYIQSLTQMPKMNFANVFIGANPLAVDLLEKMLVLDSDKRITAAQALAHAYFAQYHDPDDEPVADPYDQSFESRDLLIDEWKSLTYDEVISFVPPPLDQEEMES

Row | SMILES | IC50
1 | COc1cc(-c2cc(-c3ccc(Br)cc3)nc(N)c2C#N)cc(OC)c1OC [MAP Kinase Inhibitor, 1] | 2000 nM
2 | Cc1ccc(-c2cc(-c3ccc(Br)cc3)nc(N)c2C#N)o1 [MAP Kinase Inhibitor, 2] | 70 nM
3 | N#Cc1c(-c2cccnc2)cc(-c2ccc(Br)cc2)nc1N [MAP Kinase Inhibitor, 3] | 3700 nM
4 | N#Cc1c(-c2ccc(Cl)c(Cl)c2)cc(-c2ccc(Br)cc2)nc1N [MAP Kinase Inhibitor, 4] | 3680 nM
5 | N#Cc1c(-c2c[nH]c3ccccc23)cc(-c2ccc(Br)cc2)nc1N [MAP Kinase Inhibitor, 6] | 2650 nM
6 | N#Cc1c(-c2ccc(Br)cc2)cc(-c2ccc(Br)cc2)nc1N [MAP Kinase Inhibitor, 7] | 760 nM
7 | COc1cc(-c2cc(-c3ccc(Br)cc3)[nH]c(=O)c2C#N)cc(OC)c1OC [MAP Kinase Inhibitor, 8] | 1220 nM
8 | N#Cc1c(-c2ccc(Cl)c(Cl)c2)cc(-c2ccc(Br)cc2)[nH]c1=O [MAP Kinase Inhibitor, 11] | 120 nM
9 | N#Cc1c(-c2ccc(Br)cc2)cc(-c2ccc(Br)cc2)[nH]c1=O [MAP Kinase Inhibitor, 14] | 4400 nM
